Results reported in patent US20210078983A1, “COMPOSITIONS AND METHODS FOR THE TREATMENT OF CANCER” (Cellix Bio Private Limited, priority 2017, published 2021).
“And” between values parts separate entries of the source, which are not always exact repeats. Identical values can stand only once. “Also recorded” adds a separate entry of the source.

What was measured:
[1] = system: HCT116 human colon cancer xenograft; assay: Anti-tumor activity in HCT116 xenograft in Foxn1 athymic nude mice (study CLBBI1); format: in vivo; conditions: for Percent Tumor Growth Inhibition (% TGI): 5 days/week
Description: Evaluation of the Anti-Tumor Activity of CLX-155 [(2R,3R,4R,5R)-2-(5-fluoro-4-octanamido-2-oxopyrimidin-1(2H)-yl)-5-methyltetrahydrofuran-3,4-diyl diacetate] in Relation to Capecitabine in HCT116 Xenograft in Foxn1 Athymic Nude Mice Model Study Code: CLBBI1
The purpose of this study was to evaluate the anti-tumor activity of CLX-155 administered by oral gavage, once daily for 5 days/week (two days off) for three weeks in HCT116 human colon cancer xenograft bearing Foxn1 athymic nude mice. The anti-tumor activity of CLX-155 was compared with capecitabine.
(§1) Foxn1 athymic nude female mice (7-8 weeks) were implanted with human colon cancer cell line, HCT116 (5 million cells/site) subcutaneously in the dorsal right flank. The animals were randomized (N=10) into different treatment groups as vehicle control, CLX-155 (125, 250 and 500 mg/kg/day) or capecitabine (1000 mg/kg/day) based on the tumor volume, when the subcutaneous tumor reached a volume in the range of 70-170 mm3. The doses were selected based on the results of a 7-day repeated dose range finding toxicity study in Foxn1 nude mice.
(§2) The animals in the control group were dosed with the formulation used for CLX-155, which consisted of Capryol 90 (32.5% w/v), Polysorbate 80 (2.5% w/v) in Water (q.$) at the dose volume of 8 mL/kg. The Capecitabine formulation was prepared using 0.5% Hydroxypropyl methylcellulose (HPMC E 15) in 40 mM citrate buffer, pH 6.0. Treatment to animals was performed for three consecutive weeks (5 days/week dosing followed by 2 days off). The dose volume was 8 and 10 ml/kg body weight for CLX-155 and capecitabine, respectively. […] Tumor growth inhibition (TGI) was calculated based on the tumor volume on a given day as compared to that on day 1.

[2] = Mortality, clinical signs and body weight in the HCT116 xenograft study; format: in vivo; conditions: for mortality: N=10, deaths on day 14 and 22
Protocol: as §1, §2

With CCCCCOC(=O)Nc1nc(=O)n([C@@H]2O[C@H](C)[C@@H](O)[C@H]2O)cc1F [Capecitabine, reference compound] the “CR or PR observed” value ([1]; 1000 mg/kg/day) was “no CR or PR observed”, the “Percent Tumor Growth Inhibition (% TGI)” value ([1]; 1000 mg/kg/day, day 3) was 27.3% and the “Percent Tumor Growth Inhibition (% TGI)” value ([1]; 1000 mg/kg/day, day 5) was 46.2%. For the same molecule, the “Percent Tumor Growth Inhibition (% TGI)” value ([1]; 1000 mg/kg/day, day 8) was 68.0%, the “Percent Tumor Growth Inhibition (% TGI)” value ([1]; 1000 mg/kg/day, day 10) was 75.4% and the “Percent Tumor Growth Inhibition (% TGI)” value ([1]; 1000 mg/kg/day, day 12) was 80.9%. For the same molecule, the “Percent Tumor Growth Inhibition (% TGI)” value ([1]; 1000 mg/kg/day, day 15) was 87.7%, the “TGI compared with the other drug (in words)” value ([1]; Capecitabine at 1000 mg/kg/day) was “comparable to that observed at 500 mg/kg/day of CLX-155” and the “Mean % body weight reduction” value ([2]; 1000 mg/kg/day) was −5.9%. For the same molecule, the “clinical signs of toxicity” value ([2]; 1000 mg/kg/day) was “hunched back and scaly skin”, the mortality ([2]; 1000 mg/kg/day) was “Two” and the mortality ([2]; 1000 mg/kg/day, listed as capecitabine) was 2/10. The “relative toxicity based on mortality and clinical signs of toxicity” value ([2]; capecitabine 1000 mg/kg/day vs CLX-155 125-500 mg/kg/day) was “relatively more toxic than CLX-155”.

For CCCCCCCC(=O)Nc1nc(=O)n([C@@H]2O[C@H](C)[C@@H](OC(C)=O)[C@H]2OC(C)=O)cc1F [CLX-155, (2R,3R,4R,5R)-2-(5-fluoro-4-octanamido-2-oxopyrimidin-1(2H)-yl)-5-methyltetrahydrofuran-3,4-diyl diacetate], the “Percent Tumor Growth Inhibition (% TGI)” value ([1]; 125 mg/kg/day oral gavage, day 3) was 49.4%, the “Percent Tumor Growth Inhibition (% TGI)” value ([1]; 125 mg/kg/day oral gavage, day 5) was 59.5% and the “Percent Tumor Growth Inhibition (% TGI)” value ([1]; 125 mg/kg/day oral gavage, day 8) was 59.8%. For the same molecule, the “Percent Tumor Growth Inhibition (% TGI)” value ([1]; 125 mg/kg/day oral gavage, day 10) was 56.3%, the “Percent Tumor Growth Inhibition (% TGI)” value ([1]; 125 mg/kg/day oral gavage, day 12) was 58.5% and the “Percent Tumor Growth Inhibition (% TGI)” value ([1]; 125 mg/kg/day oral gavage, day 15) was 57.8%. The “Percent Tumor Growth Inhibition (% TGI)” value ([1]; 250 mg/kg/day oral gavage, day 3) was 83.6%, the “Percent Tumor Growth Inhibition (% TGI)” value ([1]; 250 mg/kg/day oral gavage, day 5) was 61.4% and the “Percent Tumor Growth Inhibition (% TGI)” value ([1]; 250 mg/kg/day oral gavage, day 8) was 67.7%. The “Percent Tumor Growth Inhibition (% TGI)” value ([1]; 250 mg/kg/day oral gavage, day 10) was 66.5%, the “Percent Tumor Growth Inhibition (% TGI)” value ([1]; 250 mg/kg/day oral gavage, day 12) was 66.7% and the “Percent Tumor Growth Inhibition (% TGI)” value ([1]; 250 mg/kg/day oral gavage, day 15) was 70.4%. For the same molecule, the “Percent Tumor Growth Inhibition (% TGI)” value ([1]; 500 mg/kg/day oral gavage, day 3) was 51.1%, the “Percent Tumor Growth Inhibition (% TGI)” value ([1]; 500 mg/kg/day oral gavage, day 5) was 67.1% and the “Percent Tumor Growth Inhibition (% TGI)” value ([1]; 500 mg/kg/day oral gavage, day 8) was 75.3%. The “Percent Tumor Growth Inhibition (% TGI)” value ([1]; 500 mg/kg/day oral gavage, day 10) was 75.4%, the “Percent Tumor Growth Inhibition (% TGI)” value ([1]; 500 mg/kg/day oral gavage, day 12) was 79.5% and the “Percent Tumor Growth Inhibition (% TGI)” value ([1]; 500 mg/kg/day oral gavage, day 15) was 90.6%. For the same molecule, the “complete tumor regressions / complete responders (CR)” value ([1]; 500 mg/kg/day, N=10) was “Two and 2/10”, the “TGI compared with the other drug (in words)” value ([1]; CLX-155 at 500 mg/kg/day) was “comparable to capecitabine at 1000 mg/kg/day” and the “tumor growth inhibition as compared to the vehicle control (in words)” value ([1]; all dose levels tested) was “statistically significant, dose dependent tumor growth inhibition at all doses; also recorded: statistically significant, dose dependent tumor growth inhibition at all the dose levels tested; also recorded: dose-dependent inhibition of tumor growth”.
